Data on 19 compounds can be found in US9661853B2, “Molecules having pesticidal utility, and intermediates, compositions, and processes, related thereto” (Dow AgroSciences LLC, priority 2015, dated 2017).

Test [1] has as its system Cabbage Looper (Trichoplusia ni, TRIPNI). Put plainly: Bioassay on Cabbage Looper (CL), 128-well diet tray assay. Type of test: in vivo. The note with it: 168 h, 50 μg/cm^2 on artificial diet, second instar larvae, 25° C., five to seven days, average of eight wells, read-out: CL % Control (or Mortality) rating. The protocol:
(§1) Bioassays on Beet Armyworm (Spodoptera exigua, LAPHEG) (“BAW”) and Cabbage Looper (Trichoplusia ni, TRIPNI) (“CL”)
(§2) Certain molecules disclosed in this document were tested against BAW and CL using procedures described in the following examples. In the reporting of the results, the “BAW & CL Rating Table” was used (See Table Section).
Bioassays on CL were conducted using a 128-well diet tray assay. One to five second instar CL larvae were placed in each well (3 mL) of the diet tray that had been previously filled with 1 mL of artificial diet to which 50 μg/cm^2 of the test molecule (dissolved in 50 μL of 90:10 acetone-water mixture) had been applied (to each of eight wells) and then allowed to dry. Trays were covered with a clear self-adhesive cover, vented to allow gas exchange, and held at 25° C., 14:10 light-dark for five to seven days. Percent mortality was recorded for the larvae in each well; activity in the eight wells was then averaged. The results are indicated in the table entitled “Table ABC: Biological Results” (See Table Section).

Test [2] deals with Beet Armyworm (Spodoptera exigua, LAPHEG). As to the kind of experiment: Bioassay on Beet Armyworm (BAW), 128-well diet tray assay. Type of test: in vivo. The note with it: 168 h, 50 μg/cm^2 on artificial diet, second instar larvae, 25° C., five to seven days, average of eight wells, read-out: BAW % Control (or Mortality) rating. The protocol:
as §1, §2
Bioassays on BAW were conducted using a 128-well diet tray assay. One to five second instar BAW larvae were placed in each well (3 mL) of the diet tray that had been previously filled with 1 mL of artificial diet to which 50 μg/cm^2 of the test molecule (dissolved in 50 μL of 90:10 acetone-water mixture) had been applied (to each of eight wells) and then allowed to dry. Trays were covered with a clear self-adhesive cover, vented to allow gas exchange, and held at 25° C., 14:10 light-dark for five to seven days. Percent mortality was recorded for the larvae in each well; activity in the eight wells was then averaged. The results are indicated in the table entitled “Table ABC: Biological Results” (See Table Section).

Each structure is given as a SMILES string.

As usually defined, the mortality is the percentage killed. For the compound `COC(C)c1ccc(C)cc1N1C(=O)CS/C1=N\C(=O)Nc1ccc(CNc2ncn(-c3ccc(OC(F)(F)F)cc3)n2)cc1` (centres unmarked) [F1, (Z)-1-(3-(2-(1-Methoxyethyl)-5-methylphenyl)-4-oxothiazolidin-2-ylidene)-3-(4-(((1-(4-(trifluoromethoxy)phenyl)-1H-1,2,4-triazol-3-yl)amino)methyl)phenyl)urea], the mortality at 50 µg/cm2 in test [1] and in test [2] was 50 to 100% in each case.

For the compound `COCc1ccc(C)cc1N1C(=O)CS/C1=N\C(=O)Nc1ccc(CNc2ncn(-c3ccc(OC(F)(F)F)cc3)n2)cc1` [F4, (Z)-1-(3-(2-(Methoxymethyl)-5-methylphenyl)-4-oxothiazolidin-2-ylidene)-3-(4-(((1-(4-(trifluoromethoxy)phenyl)-1H-1,2,4-triazol-3-yl)amino)methyl)phenyl)urea], the mortality at 50 µg/cm2 in test [1] and in test [2] was 50 to 100% in each case.

As for `Cc1ccc(C(C)C)c(N2C(=O)CS/C2=N\C(=O)Nc2ccc(CNc3ncn(-c4ccc(OC(F)(F)F)cc4)n3)c(Cl)c2)c1` [F7, (Z)-1-(3-Chloro-4-(((1-(4-(trifluoromethoxy)phenyl)-1H-1,2,4-triazol-3-yl)amino)methyl)phenyl)-3-(3-(2-isopropyl-5-methylphenyl)-4-oxothiazolidin-2-ylidene)urea], the mortality at 50 µg/cm2 in test [1] and in test [2] was 50 to 100% in each case.

On to `CCCc1ccc(C)cc1N1C(=O)CS/C1=N\C(=O)Nc1ccc(CNc2ncn(-c3ccc(OC(F)(F)F)cc3)n2)c(Cl)c1` [F8, (Z)-1-(3-Chloro-4-(((1-(4-(trifluoromethoxy)phenyl)-1H-1,2,4-triazol-3-yl)amino)methyl)phenyl)-3-(3-(5-methyl-2-propylphenyl)-4-oxothiazolidin-2-ylidene)urea], for which the mortality at 50 µg/cm2 in test [1] and in test [2] was 50 to 100% in each case.

For the compound `COCc1ccc(C)cc1N1C(=O)CS/C1=N\C(=O)Nc1ccc(CNc2ncn(-c3ccc(OC(F)(F)F)cc3)n2)c(Cl)c1` [F9, (Z)-1-(3-Chloro-4-(((1-(4-(trifluoromethoxy)phenyl)-1H-1,2,4-triazol-3-yl)amino)methyl)phenyl)-3-(3-(2-(methoxymethyl)-5-methylphenyl)-4-oxothiazolidin-2-ylidene)urea], the mortality at 50 µg/cm2 in test [1] and in test [2] was 50 to 100% in each case.

With `Cc1ccc(C(C)C)c(N2C(=O)CS/C2=N\C(=O)Nc2ccc(CNc3ncn(-c4ccc(OC(F)(F)F)cc4)n3)cn2)c1` [F11, (Z)-1-(3-(2-Isopropyl-5-methylphenyl)-4-oxothiazolidin-2-ylidene)-3-(5-(((1-(4-(trifluoromethoxy)phenyl)-1H-1,2,4-triazol-3-yl)amino)methyl)pyridin-2-yl)urea], the mortality at 50 µg/cm2 in test [1] and in test [2] was 50 to 100% in each case.

For `CCCc1ccc(C)cc1N1C(=O)CS/C1=N\C(=O)Nc1ccc(CNc2ncn(-c3ccc(OC(F)(F)F)cc3)n2)cn1` [F12, (Z)-1-(3-(5-Methyl-2-propylphenyl)-4-oxothiazolidin-2-ylidene)-3-(5-(((1-(4-(trifluoromethoxy)phenyl)-1H-1,2,4-triazol-3-yl)amino)methyl)pyridin-2-yl)urea], the mortality at 50 µg/cm2 in test [1] and in test [2] was 50 to 100% each time.

Take `COCc1ccc(C)cc1N1C(=O)CS/C1=N\C(=O)Nc1ccc(CNc2ncn(-c3ccc(OC(F)(F)F)cc3)n2)cn1` [F13, (Z)-1-(3-(2-(Methoxymethyl)-5-methylphenyl)-4-oxothiazolidin-2-ylidene)-3-(5-(((1-(4-(trifluoromethoxy)phenyl)-1H-1,2,4-triazol-3-yl)amino)methyl)pyridin-2-yl)urea]: the mortality at 50 µg/cm2 in test [1] and in test [2] was 50 to 100% in each case.

For `COCc1ccc(C)cc1N1C(=O)CS/C1=N\C(=O)Nc1ccc(CN(C)c2ncn(-c3ccc(OC(F)(F)F)cc3)n2)cn1` [F14, (Z)-1-(3-(2-(Methoxymethyl)-5-methylphenyl)-4-oxothiazolidin-2-ylidene)-3-(5-((methyl(1-(4-(trifluoromethoxy)phenyl)-1H-1,2,4-triazol-3-yl)amino)methyl)pyridin-2-yl)urea], the mortality at 50 µg/cm2 in test [1] and in test [2] was 50 to 100% throughout.

Regarding `Cc1ccc(C(C)C)c(N2C(=O)CS/C2=N\C(=O)Nc2ccc(CN(C)c3ncn(-c4ccc(OC(F)(F)F)cc4)n3)cn2)c1` [F16, (Z)-1-(3-(2-Isopropyl-5-methylphenyl)-4-oxothiazolidin-2-ylidene)-3-(5-((methyl(1-(4-(trifluoromethoxy)phenyl)-1H-1,2,4-triazol-3-yl)amino)methyl)pyridin-2-yl)urea], the mortality at 50 µg/cm2 in test [1] and in test [2] was 50 to 100% each time.

For `COCc1ccc(C)cc1N1C(=O)CS/C1=N\C(=O)Nc1ccc(CN(C)c2ncn(-c3ccc(OC(F)(F)F)cc3)n2)cc1F` [F17, (Z)-1-(2-Fluoro-4-((methyl(1-(4-(trifluoromethoxy)phenyl)-1H-1,2,4-triazol-3-yl)amino)methyl)phenyl)-3-(3-(2-(methoxymethyl)-5-methylphenyl)-4-oxothiazolidin-2-ylidene)urea], the mortality at 50 µg/cm2 in test [1] and in test [2] was 50 to 100% throughout.

`COCc1ccc(C)cc1N1C(=O)CS/C1=N\C(=O)Nc1ccc(CN(C)c2ncn(-c3ccc(OC(F)(F)F)cc3)n2)c(Cl)c1` [F18, (Z)-1-(3-Chloro-4-((methyl(1-(4-(trifluoromethoxy)phenyl)-1H-1,2,4-triazol-3-yl)amino)methyl)phenyl)-3-(3-(2-(methoxymethyl)-5-methylphenyl)-4-oxothiazolidin-2-ylidene)urea]: the mortality at 50 µg/cm2 in test [1] and in test [2] was 0 to 50% each time.

With `CCCc1ccc(C)cc1N1C(=O)CS/C1=N\C(=O)Nc1ccc(CN(C)c2ncn(-c3ccc(OC(F)(F)F)cc3)n2)c(Cl)c1` [F19, (Z)-1-(3-Chloro-4-((methyl(1-(4-(trifluoromethoxy)phenyl)-1H-1,2,4-triazol-3-yl)amino)methyl)phenyl)-3-(3-(5-methyl-2-propylphenyl)-4-oxothiazolidin-2-ylidene)urea], the mortality at 50 µg/cm2 in test [1] and in test [2] was 0% in each case.

As for `Cc1ccc(C(C)C)c(N2C(=O)CS/C2=N\C(=O)Nc2ccc(CN(C)c3ncn(-c4ccc(OC(F)(F)F)cc4)n3)c(Cl)c2)c1` [F20, (Z)-1-(3-Chloro-4-((methyl(1-(4-(trifluoromethoxy)phenyl)-1H-1,2,4-triazol-3-yl)amino)methyl)phenyl)-3-(3-(2-isopropyl-5-methylphenyl)-4-oxothiazolidin-2-ylidene)urea], the mortality at 50 µg/cm2 fell in the range of 50 to 100% in test [1] and 0 to 50% in test [2].

With `Cc1ccc(C(C)C)c(N2C(=O)CS/C2=N\C(=O)Nc2ccc(CN(C)c3ncn(-c4ccc(OC(F)(F)F)cc4)n3)cc2F)c1` [F22, (Z)-1-(2-Fluoro-4-((methyl(1-(4-(trifluoromethoxy)phenyl)-1H-1,2,4-triazol-3-yl)amino)methyl)phenyl)-3-(3-(2-isopropyl-5-methylphenyl)-4-oxothiazolidin-2-ylidene)urea], the mortality at 50 µg/cm2 in test [1] and in test [2] was 50 to 100% throughout.

With `CCCc1ccc(C)cc1N1C(=O)CS/C1=N\C(=O)Nc1ccc(CN(C)c2ncn(-c3ccc(OC(F)(F)F)cc3)n2)cc1` [F23, (Z)-1-(4-((Methyl(1-(4-(trifluoromethoxy)phenyl)-1H-1,2,4-triazol-3-yl)amino)methyl)phenyl)-3-(3-(5-methyl-2-propylphenyl)-4-oxothiazolidin-2-ylidene)urea], the mortality at 50 µg/cm2 in test [1] and in test [2] was 50 to 100% in each case.

Regarding `Cc1ccc(C(C)C)c(N2C(=O)CS/C2=N\C(=O)Nc2ccc(CN(C)c3ncn(-c4ccc(OC(F)(F)F)cc4)n3)cc2)c1` [F24, (Z)-1-(3-(2-Isopropyl-5-methylphenyl)-4-oxothiazolidin-2-ylidene)-3-(4-((methyl(1-(4-(trifluoromethoxy)phenyl)-1H-1,2,4-triazol-3-yl)amino)methyl)phenyl)urea], the mortality at 50 µg/cm2 in test [1] and in test [2] was 50 to 100% in each case.

Consider `Cc1ccc(C(C)C)c(N2C(=O)CS/C2=N\C(=O)Nc2ccc(C(=O)N(C)c3ncn(-c4ccc(OC(F)(F)F)cc4)n3)cc2)c1` [F25, (Z)-4-(3-(3-(2-isopropyl-5-methylphenyl)-4-oxothiazolidin-2-ylidene)ureido)-N-methyl-N-(1-(4-(trifluoromethoxy)phenyl)-1H-1,2,4-triazol-3-yl)benzamide], for which the mortality at 50 µg/cm2 in test [1] and in test [2] was 50 to 100% each time.

Regarding `Cc1ccc(C(C)C)c(N2C(=O)CS/C2=N\C(=O)Nc2ccc(NC(=O)c3ncn(-c4ccc(OC(F)(F)F)cc4)n3)cc2)c1` [F26, (Z)—N-(4-(3-(3-(2-Isopropyl-5-methylphenyl)-4-oxothiazolidin-2-ylidene)ureido)phenyl)-1-(4-(trifluoromethoxy)phenyl)-1H-1,2,4-triazole-3-carboxamide], the mortality at 50 µg/cm2 in test [1] and in test [2] was 50 to 100% throughout.
